The values below come from patent publication US20230143751A1, “Aromatic Compound And Use Thereof In Preparing Antineoplastic Drugs” (Shanghai Zheye Biotechnology Co. Ltd., priority 2020, published 2023).

Common to all, as to format: cell-based
Test [1] concerns NCI-H358 cells. The experiment in a line: Cell proliferation activity of NCI-H358 by CellTiter-Glo reagent. As to conditions: for IC50: read-out: IC50 value of cell proliferation inhibitory activity of NCI-H358. On the procedure: NCI-H358 cells in exponential growth phase were digested with trypsin-EDTA, plated in a 96-well plate with 2000-3000 cells per well, and incubated overnight at 37° C. with 5% CO2. […] After the incubation, CellTiter-Glo test reagent with an equal volume was added into each well and the obtained 96-well plate was incubated after shaking. The chemiluminescence values were determined by microplate reader, and the IC50 values of the test compounds inhibiting the proliferation of NCI-H358 cells were fitted and calculated by GraphPad Prism software.
The test method of inhibitory activity was the same as that in Test 3 in “Biological Tests” part.
A general note: Cellular ATP, detected with luciferase, serves as a proxy for viable cell number.

Test [2] has as its system MIA PaCa-2 cells. Put plainly: Cell proliferation activity of MIA PaCa-2 by CellTiter-Glo reagent. As to conditions: 72 h, CellTiter-Glo; for IC50: Homo sapiens, MIA PaCa-2, read-out: IC50 value of cell proliferation inhibitory activity of the compound on MIA PaCa-2. On the procedure: MIA PaCa-2 cells in exponential growth phase were digested with trypsin-EDTA, plated in a 96-well plate with 2000-3000 cells per well, and incubated overnight at 37° C. with 5% CO2. Mother solutions were prepared from the test compounds by using DMSO, subjected to gradient elution with DMEM growth medium, and then added into the 96-well plate and incubated in an incubator for 72 h at 37° C. with 5% CO2. After the incubation, CellTiter-Glo test reagent with an equal volume was added into each well and the obtained 96-well plate was incubated after shaking. The chemiluminescence values were determined by microplate reader, and the IC50 values of the test compounds inhibiting the proliferation of MIA PaCa-2 cells were fitted and calculated by GraphPad Prism software.
The test method of inhibitory activity was the same as that in Test 2 in “Biological Tests” part.

The test system of test [3] is NCI-H358. Put plainly: Cell proliferation inhibitory activity on NCI-H358, 3D model test (agarose colony formation). As to conditions: for IC50: Homo sapiens, NCI-H358, 3D agarose colony formation, NBT staining. The procedure:
100 μl of agarose gel with a high concentration was spread in a 96-well plate as the bottom agarose gel layer. Agarose with a low concentration and growth medium containing cells were mixed and then spread on the bottom agar layer, cooled and solidified, then incubated overnight at 37° C. Mother solutions were prepared from the test compounds by using DMSO, and then subjected to gradient elution with RPMI 1640 growth medium. The solutions of test compounds with different concentrations after gradient elution were added to the 96-well plate comprising an upper layer of agar gel-cells. Solvent control well was set up and the plate was incubated in a CO2 incubator. The drug-containing medium was changed during the incubation period and the cell growth situation was observed. After the incubation, the cells were stained with NBT and the number of cell colony formation was counted, and the IC50 values of the compounds inhibiting cell proliferation were derived.

Setting [4] is: Homo sapiens, NCI-H358, 72 h, 72 h, CellTiter-Glo, test 3.
[5] abbreviates: Homo sapiens, NCI-H358, test 4, method of test 3.

Where two headings read alike, the source gives them in different places. Bounds are passed on as bounds.

In the case of `[2H]/C=C(\[2H])C(=O)N1CCN(c2nc(=O)n(-c3c(CC)ccnc3C(C)C)c3nc(-c4c(F)cccc4C=C)c(Cl)cc23)[C@@H](C)C1` [Compound 2-8], the “anti-cell proliferation activity against KRAS G12C mutant type cells NCI-H358 (in words)” value in test [1] (72 h, CellTiter-Glo) was “significant anti-cell proliferation activity”. Further, the IC50 in test [1] (setting [4]) is below 50 nM.
For `C=CC(=O)N1CCN(c2nc(=O)n(-c3c(CC)ccnc3C(C)C)c3nc(-c4ccccc4C=C)c(Cl)cc23)[C@@H](C)C1` [Compound 3-4MIS], the IC50 in test [1] (72 h, CellTiter-Glo, test 3) was below 50 nM.
As to `[2H]C([2H])=Cc1ccccc1-c1nc2c(cc1Cl)c(N1CCN(C(=O)C=C)C[C@@H]1C)nc(=O)n2-c1c(C)ccnc1C(C)C` [Compound 3-16M], the “anti-cell proliferation activity against KRAS G12C mutant type cells NCI-H358 (in words)” value in test [1] (72 h, CellTiter-Glo) is on record as “significant anti-cell proliferation activity”. Besides, the IC50 in test [1] (setting [4]) is below 50 nM. Besides, in test [1] (NCI-H358), the “cell proliferation inhibitory activity on NCI-H358 compared with the corresponding compound with axial chiral S configuration (in words)” value is listed as “significantly better”.
With `[2H]C([2H])=Cc1ccccc1-c1nc2c(cc1F)c(N1CCN(C(=O)C=C)C[C@@H]1C)nc(=O)n2-c1c(C)ccnc1C(C)C` [Compound 3-23], the IC50 in test [2] and in test [3] was below 50 nM each time.
`[2H]C([2H])=Cc1ccccc1-c1nc2c(cc1F)c(N1CCN(C(=O)C(=C)F)C[C@@H]1C)nc(=O)n2-c1c(C([2H])([2H])[2H])ccnc1C(C)C` [Compound 4-16] had an IC50 in test [3] below 50 nM.
Turning to `C=CC(=O)N1CCN(c2nc(=O)n(-c3c(C(C)C)ccnc3C(C)C)c3nc(-c4ccccc4C=C)c(Cl)cc23)[C@@H](C)C1` [Compound 5-24], the IC50 in test [2] and in test [3] was below 50 nM each time.
`[2H]C([2H])=Cc1cccc(F)c1-c1nc2c(cc1F)c(N1CCN(C(=O)C(=C)F)C[C@@H]1C)nc(=O)n2-c1c(C)ccnc1C(C)C` [Compound 3-27]: in test [3], the IC50 was below 50 nM.
On to `[2H][C@]1(C)CN(C(=O)C=C)CCN1c1nc(=O)n(-c2c(C)ccnc2C(C)C)c2nc(-c3c(F)cccc3C=C)c(Cl)cc12` [Compound 3-49], for which, in test [1] (72 h, CellTiter-Glo), the “anti-cell proliferation activity against KRAS G12C mutant type cells NCI-H358 (in words)” value is listed as “significant anti-cell proliferation activity”. The IC50 in test [1] (setting [4]) was below 50 nM.
For the compound `[2H]C([2H])=Cc1ccccc1-c1nc2c(cc1Cl)c(N1[C@@H](C)CN(C(=O)C=C)C[C@@H]1C)nc(=O)n2-c1c(CC)ccnc1C(C)C` [Compound 2-3], in test [1] (72 h, CellTiter-Glo), the “anti-cell proliferation activity against KRAS G12C mutant type cells NCI-H358 (in words)” value is listed as “significant anti-cell proliferation activity”.
In the case of `C=CC(=[18O])N1CCN(c2nc(=O)n(-c3c(CC)ccnc3C(C)C)c3nc(-c4c(F)cccc4C=C)c(Cl)cc23)[C@@H](C)C1` [Compound 3-8MIS], the “anti-cell proliferation activity against KRAS G12C mutant type cells NCI-H358 (in words)” value in test [1] (72 h, CellTiter-Glo) is on record as “significant anti-cell proliferation activity”. Besides, the IC50 in test [1] (setting [5]) is below 50 nM.
`[2H]C([2H])=Cc1cccc(F)c1-c1nc2c(cc1F)c(N1CCN(C(=O)C=C)C[C@@H]1C)nc(=O)n2-c1c(C([2H])([2H])[2H])ccnc1C(C)C` [Compound 4-3]: the IC50 in test [2] and in test [3] was below 50 nM throughout.
In test [3], `[2H]C([2H])=Cc1cccc(F)c1-c1nc2c(cc1F)c(N1CCN(C(=O)C(=C)F)C[C@@H]1C)nc(=O)n2-c1c(C([2H])([2H])[2H])ccnc1C(C)C` [Compound 4-11] yielded an IC50 below 50 nM.
The same measure, in the same setting: for `[2H]C([2H])=Cc1cccc(F)c1-c1nc2c(cc1F)c(N1[C@@H](C)CN(C(=O)C(=C)F)C[C@@H]1C)nc(=O)n2-c1c(C([2H])([2H])[2H])ccnc1C(C)C` [Compound 4-9] the value was below 50 nM.
For the compound `C=CC(=O)N1CCN(c2nc(=O)n(-c3c(C)ccnc3C(C)C)c3nc(-c4c(F)cccc4C=C)c(Cl)cc23)[C@@H](C)C1` [Example 3-12P], in test [1] (72 h, CellTiter-Glo, test 3), the IC50 was above 50 nM.
As for `[2H]C([2H])=Cc1cccc(F)c1-c1nc2c(cc1F)c(N1CCN(C(=O)C(=C)F)C[C@@H]1C)nc(=O)n2-c1c(C(C)C)ccnc1C(C)C` [Compound 5-11], the IC50 in test [3] is below 50 nM.
Take `[2H]C([2H])=Cc1cccc(F)c1-c1nc2c(cc1F)c(N1[C@@H](C)CN(C(=O)C(=C)F)C[C@@H]1C)nc(=O)n2-c1c(C)ccnc1C(C)C` [Compound 3-25]: in test [3], the IC50 was below 50 nM.
Consider `[2H]C([2H])=Cc1cccc(F)c1-c1nc2c(cc1Cl)c(N1[C@@H](C)CN(C(=[18O])C=C)C[C@@H]1C)nc(=O)n2-c1c(C)ccnc1C(C)C` [Compound 3-11MIS], for which the “anti-cell proliferation activity against KRAS G12C mutant type cells NCI-H358 (in words)” value in test [1] (72 h, CellTiter-Glo) is recorded as “significant anti-cell proliferation activity”. Moreover, the IC50 in test [1] (setting [5]) is below 50 nM.
For `C=CC(=[18O])N1C[C@H](C)N(c2nc(=O)n(-c3c(C)ccnc3C(C)C)c3nc(-c4c(F)cccc4C=C)c(Cl)cc23)[C@@H](C)C1` [Compound 3-7MIS], in that order: “significant anti-cell proliferation activity” and below 50 nM.
Take `C=CC(=[18O])N1C[C@H](C)N(c2nc(=O)n(-c3c(C)ccnc3C(C)C)c3nc(-c4ccccc4C=C)c(Cl)cc23)[C@@H](C)C1` [Compound 3-3MIS]: the “anti-cell proliferation activity against KRAS G12C mutant type cells NCI-H358 (in words)” value in test [1] (72 h, CellTiter-Glo) is “significant anti-cell proliferation activity”. Besides, the IC50 in test [1] (setting [5]) is below 50 nM.
Turning to `C=CC(=[18O])N1CCN(c2nc(=O)n(-c3c(CC)ccnc3C(C)C)c3nc(-c4ccccc4C=C)c(Cl)cc23)[C@@H](C)C1` [Compound 3-4MIS], in test [1] (72 h, CellTiter-Glo), the “anti-cell proliferation activity against KRAS G12C mutant type cells NCI-H358 (in words)” value is listed as “significant anti-cell proliferation activity”. In addition, the IC50 in test [1] (setting [5]) was below 50 nM.
In the case of `[2H]C([2H])=Cc1cccc(F)c1-c1nc2c(cc1F)c(N1CCN(C(=O)C=C)C[C@@H]1C)nc(=O)n2-c1c(C(C)C)ccnc1C(C)C` [Compound 5-3], the IC50 in test [2] and in test [3] was below 50 nM each time.
`[2H]/C=C(\[2H])C(=O)N1CCN(c2nc(=O)n(-c3c(C)ccnc3C(C)C)c3nc(-c4c(F)cccc4C=C)c(Cl)cc23)[C@@H](C)C1` [Compound 3-51]: the “anti-cell proliferation activity against KRAS G12C mutant type cells NCI-H358 (in words)” value in test [1] (72 h, CellTiter-Glo) is listed as “significant anti-cell proliferation activity”. Moreover, the IC50 in test [1] (setting [4]) was below 50 nM.
With `C=CC(=[18O])N1CCN(c2nc(=O)n(-c3c(C)ccnc3C(C)C)c3nc(-c4ccccc4C=C)c(Cl)cc23)[C@@H](C)C1` [Compound 3-1MIS], in test [1] (72 h, CellTiter-Glo), the “anti-cell proliferation activity against KRAS G12C mutant type cells NCI-H358 (in words)” value is on record as “significant anti-cell proliferation activity”. Moreover, in test [1] (setting [5]), the IC50 was below 50 nM.
For the compound `C=CC(=O)N1C[C@H](C)N(c2nc(=O)n(-c3c(C)ccnc3C(C)C)c3nc(-c4c(F)cccc4C=C)c(Cl)cc23)[C@@H](C)C1` [Compound 3-8], the IC50 in test [2] is below 50 nM.
Take `[2H]C([2H])=Cc1cccc(F)c1-c1nc2c(cc1F)c(N1CCN(C(=O)C=C)C[C@@H]1C)nc(=O)n2-c1c(C)ccnc1C(C)C` [Compound 3-19]: the “anti-cell proliferation activity against KRAS G12C mutant type cells MIA PaCa-2 (in words)” value in test [2] was “significant anti-cell proliferation activity”. Also, the IC50 in test [2] and in test [3] was below 50 nM throughout. In addition, the “anti-cell proliferation activity against KRAS G12C mutant type cells NCI-H358 (in words)” value in test [3] (3D model test) is “significant anti-cell proliferation activity”.
As for `[2H]C([2H])=Cc1ccccc1-c1nc2c(cc1Cl)c(N1CCN(C(=O)C=C)C[C@@H]1C)nc(=O)n2-c1c(C(C)C)ccnc1C(C)C` [Compound 5-8], the IC50 in test [2] and in test [3] was below 50 nM each time.
As to `[2H]C([2H])=Cc1cccc(F)c1-c1nc2c(cc1Cl)c(N1CCN(C(=[18O])C=C)C[C@@H]1C)nc(=O)n2-c1c(CC)ccnc1C(C)C` [Compound 3-12MIS], the “anti-cell proliferation activity against KRAS G12C mutant type cells NCI-H358 (in words)” value in test [1] (72 h, CellTiter-Glo) is given as “significant anti-cell proliferation activity”. In test [1] (setting [5]), the IC50 was below 50 nM.
Taken in the same sequence, the figures for `[2H]C([2H])=Cc1cccc(F)c1-c1nc2c(cc1Cl)c(N1CCN(C(=[18O])C=C)C[C@@H]1C)nc(=O)n2-c1c(C)ccnc1C(C)C` [Compound 3-9MIS] were “significant anti-cell proliferation activity” and below 50 nM.
Take `[2H]C([2H])=Cc1cccc(F)c1-c1nc2c(cc1F)c(N1[C@@H](C)CN(C(=O)C(=C)F)C[C@@H]1C)nc(=O)n2-c1c(C(C)C)ccnc1C(C)C` [Compound 5-9]: the IC50 in test [3] was below 50 nM.
With `C=CC(=[18O])N1CCN(c2nc(=O)n(-c3c(C)ccnc3C(C)C)c3nc(-c4c(F)cccc4C=C)c(Cl)cc23)[C@@H](C)C1` [Compound 3-5MIS], the “anti-cell proliferation activity against KRAS G12C mutant type cells NCI-H358 (in words)” value in test [1] (72 h, CellTiter-Glo) is listed as “significant anti-cell proliferation activity”. For the same compound, the IC50 in test [1] (setting [5]) was below 50 nM.
